The target of experiment [1] is T1, F508delCFTR (Homo sapiens, UniProt P13569, DEL508-508).
T1 construct: expressed in transfected cells; host or cells: CFBE41o- human lung-derived epithelial cells (CFBE41o-F508delCFTR-HRP), doxycycline-inducible
The experiment in a line: Cell Surface Expression-Horse Radish Peroxidase (CSE-HRP) assay, test compound without co-corrector.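 As to Emax: percent of on-plate 2 µM positive control corrector response over DMSO.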 The format is cell-based. As to conditions: for EC50: CSE-HRP assay, test compound without co-corrector; for Emax: maximum at any tested concentration, normalized to on-plate positive control, without co-corrector. A digest of the protocol: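 CFBE41o- cells expressing F508delCFTR with HRP in the fourth exofacial loop, induced with 0.5 μg/mL doxycycline for 72 h at 37° C, then exposed to compound alone for 18-24 h at 33° C, 8-point 3-fold series from 20 μM. Surface HRP read by luminol luminescence, normalized to positive corrector control versus DMSO; EC50 from variable-slope sigmoidal fit of three replicate plates.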

Experiment [2] has as its target T1, F508delCFTR. Briefly: Cell Surface Expression-Horse Radish Peroxidase (CSE-HRP) assay, test compound with co-corrector.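 As to Maximum % activity (with co-corrector): percent of 2 µM positive control corrector over DMSO; co-corrector is that same compound.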 The format is cell-based. As to conditions: for EC50: CSE-HRP assay, test compound with 2 μM co-corrector; for Maximum % activity (with co-corrector): maximum at any tested concentration, normalized to on-plate positive control, with 2 μM co-corrector. A digest of the protocol: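 CFBE41o- cells expressing F508delCFTR with HRP in the fourth exofacial loop, induced with 0.5 μg/mL doxycycline for 72 h, then treated 18-24 h at 33° C. with compound (8 points, top 20 μM, 3-fold) plus 2 μM co-corrector. Surface HRP read by luminol luminescence; activity normalised to positive control, EC50 from variable-slope sigmoidal fit.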

Where only a bound is given, the exact number is not on record here.

T1 sequence (P13569 with tags, fused parts or gaps DEL508-508): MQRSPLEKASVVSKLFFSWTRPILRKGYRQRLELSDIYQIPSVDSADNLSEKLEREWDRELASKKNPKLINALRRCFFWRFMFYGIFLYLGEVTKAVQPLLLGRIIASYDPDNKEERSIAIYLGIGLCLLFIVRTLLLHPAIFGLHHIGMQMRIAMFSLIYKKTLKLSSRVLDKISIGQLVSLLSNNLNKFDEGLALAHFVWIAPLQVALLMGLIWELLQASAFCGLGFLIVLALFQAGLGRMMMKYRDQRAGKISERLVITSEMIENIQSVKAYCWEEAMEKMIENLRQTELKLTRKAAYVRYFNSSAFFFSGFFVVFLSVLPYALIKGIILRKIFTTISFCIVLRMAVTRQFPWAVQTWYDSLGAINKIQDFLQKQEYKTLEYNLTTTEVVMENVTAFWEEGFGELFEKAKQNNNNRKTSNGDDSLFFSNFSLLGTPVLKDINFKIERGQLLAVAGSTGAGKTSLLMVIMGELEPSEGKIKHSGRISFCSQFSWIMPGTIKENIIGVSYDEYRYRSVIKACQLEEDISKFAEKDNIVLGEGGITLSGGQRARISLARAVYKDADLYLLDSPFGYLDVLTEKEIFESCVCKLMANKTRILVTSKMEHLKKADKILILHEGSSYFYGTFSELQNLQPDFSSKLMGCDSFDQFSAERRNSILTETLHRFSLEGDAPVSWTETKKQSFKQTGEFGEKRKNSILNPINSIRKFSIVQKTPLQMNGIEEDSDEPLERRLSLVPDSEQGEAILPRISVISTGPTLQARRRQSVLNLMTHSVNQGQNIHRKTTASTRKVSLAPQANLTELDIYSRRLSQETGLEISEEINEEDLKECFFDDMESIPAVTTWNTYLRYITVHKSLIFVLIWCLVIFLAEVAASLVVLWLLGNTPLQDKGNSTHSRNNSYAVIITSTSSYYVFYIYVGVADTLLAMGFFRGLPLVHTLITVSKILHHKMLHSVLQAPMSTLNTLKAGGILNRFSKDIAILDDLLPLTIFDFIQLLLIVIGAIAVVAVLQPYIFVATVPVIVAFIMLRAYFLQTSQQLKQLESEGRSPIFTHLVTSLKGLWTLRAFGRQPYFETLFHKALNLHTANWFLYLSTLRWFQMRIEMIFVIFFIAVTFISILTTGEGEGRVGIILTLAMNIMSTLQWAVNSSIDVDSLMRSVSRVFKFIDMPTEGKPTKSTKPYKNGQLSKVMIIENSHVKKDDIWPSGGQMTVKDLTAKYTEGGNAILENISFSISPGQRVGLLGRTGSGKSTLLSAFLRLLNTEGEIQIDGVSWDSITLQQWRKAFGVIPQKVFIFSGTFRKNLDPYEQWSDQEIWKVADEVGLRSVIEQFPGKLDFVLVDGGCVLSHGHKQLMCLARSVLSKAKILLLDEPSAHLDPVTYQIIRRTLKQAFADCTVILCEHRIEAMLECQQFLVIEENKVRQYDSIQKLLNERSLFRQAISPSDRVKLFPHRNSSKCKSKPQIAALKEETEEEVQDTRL

In experiment [1], `CCC1(C(=O)NS(=O)(=O)c2c(F)cccc2F)CCc2c(Cl)cccc21` (stereo not drawn) [III-115] had an EC50 of less than 3 µM and an Emax of less than 50%. In experiment [2], the EC50 was less than 3 µM; the “Maximum % activity (with co-corrector)” value was “++ (≥150 and <350)”.

In experiment [1], `CCC1(C(=O)NS(=O)(=O)c2cc(Cl)ccc2Cl)CCc2c(Cl)cccc21` (stereo not drawn) [III-116] came in with an EC50 not below 10 µM and an Emax of less than 50%. Moreover, in experiment [2], the EC50 is not below 10 µM and the “Maximum % activity (with co-corrector)” value is given as “+ (<150)”.

With `CCC1(C(=O)NS(=O)(=O)c2cccc(Cl)c2)CCc2c(Cl)cccc21` (stereo not drawn) [III-117], in experiment [1], the EC50 is 3 to 10 µM and the maximal effect (Emax) was less than 50%. Also, in experiment [2], the EC50 was less than 3 µM; the “Maximum % activity (with co-corrector)” value was “++ (≥150 and <350)”.

In experiment [1], `CCC1(C(=O)NS(=O)(=O)c2cc(C)ccc2Cl)CCc2c(Cl)cccc21` (stereo not drawn) [III-118] yielded an EC50 not below 10 µM and an Emax of less than 50%. Also, in experiment [2], the EC50 was not below 10 µM and the “Maximum % activity (with co-corrector)” value is “+ (<150)”.

In experiment [1], `CCC1(C(=O)NS(=O)(=O)c2ccc(OC(F)(F)F)cc2)CCc2c(Cl)cccc21` (stereo not drawn) [III-119] registered an EC50 not below 10 µM and an Emax of less than 50%. Moreover, in experiment [2], the EC50 fell in the range of 3 to 10 µM and the “Maximum % activity (with co-corrector)” value is on record as “+ (<150)”.

With `CCC1(C(=O)NS(=O)(=O)c2ccccc2C#N)CCc2c(Cl)cccc21` (stereo not drawn) [III-120], in experiment [1], the EC50 was not below 10 µM and the Emax was less than 50%. Besides, in experiment [2], the EC50 was not below 10 µM and the “Maximum % activity (with co-corrector)” value is listed as “+ (<150)”.

In experiment [1], `CCC1(C(=O)NS(=O)(=O)c2c(OC)cccc2OC)CCc2c(Cl)cccc21` (stereo not drawn) [III-121] displayed an EC50 not below 10 µM and an Emax of less than 50%. Also, in experiment [2], the EC50 is not below 10 µM and the “Maximum % activity (with co-corrector)” value was “+ (<150)”.

Turning to `CCC1(C(=O)NS(=O)(=O)c2ccccc2C(F)(F)F)CCc2c(Cl)cccc21` (stereo not drawn) [III-122], in experiment [1], the EC50 is not below 10 µM and the Emax is less than 50%. Further, in experiment [2], the EC50 was not below 10 µM and the “Maximum % activity (with co-corrector)” value is recorded as “+ (<150)”.

In experiment [1], `CCC1(C(=O)NS(=O)(=O)c2ccc3c(c2)OCCO3)CCc2c(Cl)cccc21` (stereo not drawn) [III-123] showed an EC50 not below 10 µM and an Emax of less than 50%. For the same molecule, in experiment [2], the EC50 lay within 3 to 10 µM; the “Maximum % activity (with co-corrector)” value is “++ (≥150 and <350)”.

In experiment [1], `CCC1(C(=O)NS(=O)(=O)c2c(C)cccc2Cl)CCc2c(Cl)cccc21` (stereo not drawn) [III-124] had an EC50 not below 10 µM and an Emax of less than 50%. In experiment [2], the EC50 was not below 10 µM and the “Maximum % activity (with co-corrector)” value is “+ (<150)”.

In experiment [1], `CCC1(C(=O)NS(=O)(=O)c2ccc(Cl)cc2)CCc2c(Cl)cccc21` (stereo not drawn) [III-125] came in with an EC50 of 3 to 10 µM and an Emax of less than 50%. In experiment [2], the EC50 was 3 to 10 µM; the “Maximum % activity (with co-corrector)” value is “++ (≥150 and <350)”.

Take `CCC1(C(=O)NS(=O)(=O)c2c(C)cccc2C(F)(F)F)CCc2c(Cl)cccc21` (stereo not drawn) [III-126]: in experiment [1], the EC50 is not below 10 µM and the Emax was less than 50%. In experiment [2], the EC50 is not below 10 µM and the “Maximum % activity (with co-corrector)” value is listed as “+ (<150)”.

In experiment [1], `CCC1(C(=O)NS(=O)(=O)c2cccc(F)c2C#N)CCc2c(Cl)cccc21` (stereo not drawn) [III-127] had an EC50 not below 10 µM and an Emax of less than 50%. Moreover, in experiment [2], the EC50 is not below 10 µM and the “Maximum % activity (with co-corrector)” value was “+ (<150)”.

In the case of `CCC1(C(=O)NS(=O)(=O)C2(C)CC2)CCc2c(Cl)cccc21` (stereo not drawn) [III-128], in experiment [1], the EC50 lay within 3 to 10 µM and the Emax is less than 50%. Also, in experiment [2], the EC50 lay within 3 to 10 µM; the “Maximum % activity (with co-corrector)” value is “++ (≥150 and <350)”.

In experiment [1], `CCC1(C(=O)NS(=O)(=O)c2ccc(-c3ccccc3)cc2)CCc2c(Cl)cccc21` (stereo not drawn) [III-129] had an EC50 not below 10 µM and an Emax of less than 50%. Further, in experiment [2], the half-maximal effective concentration (EC50) fell in the range of 3 to 10 µM; the “Maximum % activity (with co-corrector)” value was “++ (≥150 and <350)”.

As for `CCC1(C(=O)NS(=O)(=O)c2ccc(CN(C)C)cc2)CCc2c(Cl)cccc21` (stereo not drawn) [III-130], in experiment [1], the EC50 was not below 10 µM and the Emax was less than 50%. In addition, in experiment [2], the EC50 was not below 10 µM and the “Maximum % activity (with co-corrector)” value was “+ (<150)”.

In experiment [1], `CCC1(C(=O)NS(=O)(=O)c2c(C)nn(C)c2Cl)CCc2c(Cl)cccc21` (stereo not drawn) [III-131] showed an EC50 not below 10 µM and an Emax of less than 50%. Further, in experiment [2], the EC50 was not below 10 µM and the “Maximum % activity (with co-corrector)” value was “+ (<150)”.

In experiment [1], `CCC1(C(=O)NS(=O)(=O)c2cccnc2Cl)CCc2c(Cl)cccc21` (stereo not drawn) [III-132] gave an EC50 not below 10 µM and a maximal response (Emax) of less than 50%. Moreover, in experiment [2], the EC50 fell in the range of 3 to 10 µM; the “Maximum % activity (with co-corrector)” value is “++ (≥150 and <350)”.

In experiment [1], `CCC1(C(=O)NS(=O)(=O)c2ccc3ncccc3c2)CCc2c(Cl)cccc21` (stereo not drawn) [III-133] showed an EC50 not below 10 µM and an Emax of less than 50%. Moreover, in experiment [2], the EC50 lay in the range of 3 to 10 µM; the “Maximum % activity (with co-corrector)” value is “++ (≥150 and <350)”.

`CCC1(C(=O)NS(=O)(=O)c2c(Cl)nc3sccn23)CCc2c(Cl)cccc21` (stereo not drawn) [III-134]: in experiment [1], the EC50 is not below 10 µM and the Emax is less than 50%. Also, in experiment [2], the EC50 was not below 10 µM and the “Maximum % activity (with co-corrector)” value is listed as “+ (<150)”.

Regarding `CCC1(C(=O)NS(=O)(=O)c2ncccc2C(=O)N(C)C)CCc2c(Cl)cccc21` (stereo not drawn) [III-135], in experiment [1], the half-maximal effective concentration (EC50) was not below 10 µM and the Emax is less than 50%. Besides, in experiment [2], the EC50 is not below 10 µM and the “Maximum % activity (with co-corrector)” value is recorded as “+ (<150)”.

As for `CCC1(C(=O)NS(=O)(=O)C2CCCCC2)CCc2c(Cl)cccc21` (stereo not drawn) [III-136], in experiment [1], the EC50 was not below 10 µM and the maximal response (Emax) is less than 50%. For the same molecule, in experiment [2], the EC50 was not below 10 µM and the “Maximum % activity (with co-corrector)” value is “+ (<150)”.

In experiment [1], `CCC1(C(=O)NS(=O)(=O)c2cnccc2N2CCN(C(C)C)CC2)CCc2c(Cl)cccc21` (stereo not drawn) [III-137] gave an EC50 not below 10 µM and an Emax of less than 50%. For the same molecule, in experiment [2], the concentration giving a half-maximal response (EC50) is not below 10 µM and the “Maximum % activity (with co-corrector)” value is reported as “+ (<150)”.

On to `CCC1(C(=O)NS(=O)(=O)c2ccccc2OCCN2CCCCC2)CCc2c(Cl)cccc21` (stereo not drawn) [III-138], for which, in experiment [1], the EC50 is 3 to 10 µM and the Emax is less than 50%. Further, in experiment [2], the EC50 was 3 to 10 µM; the “Maximum % activity (with co-corrector)” value is “++ (≥150 and <350)”.

As for `CCC1(C(=O)NS(=O)(=O)c2ccc(C)cc2)CCc2c(Cl)cccc21` (stereo not drawn) [III-139], in experiment [1], the 50% effective concentration (EC50) was less than 3 µM and the Emax is less than 50%. In experiment [2], the EC50 was less than 3 µM; the “Maximum % activity (with co-corrector)” value is “++ (≥150 and <350)”.

In experiment [1], `CCC1(C(=O)NS(=O)(=O)Cc2ccccc2)CCc2c(Cl)cccc21` (stereo not drawn) [III-140] showed a concentration giving a half-maximal response (EC50) not below 10 µM and an Emax of less than 50%. In experiment [2], the EC50 was not below 10 µM and the “Maximum % activity (with co-corrector)” value is “+ (<150)”.

In experiment [1], `CCC1(C(=O)NS(=O)(=O)c2cccc3c2C(=O)N(C)C3=O)CCc2c(Cl)cccc21` (stereo not drawn) [III-141] had a concentration for a half-maximal effect (EC50) not below 10 µM and a maximal effect (Emax) of less than 50%. Further, in experiment [2], the EC50 is not below 10 µM and the “Maximum % activity (with co-corrector)” value is listed as “+ (<150)”.
